Values of other authors as cited in patent publication US6670388B1, “Fatty acid synthase inhibitors” (SmithKline Beecham Corporation, priority 2000, dated 2003).

What was measured:
[1] = test system: all three condensing enzymes
bacteria = conditions: in vivo and in vitro

| Compound | inhibition of mammalian FASs (mammalian FASs) | inhibition of condensing enzymes [1] | antibacterial activity (bacteria) | inhibition of FabB & F (FabB & F) |
| --- | --- | --- | --- | --- |
| C=C/C(C)=C/[C@@]1(C)SC(=O)C(C)=C1O [thiolactomycin] | does not inhibit mammalian FASs | specifically inhibit all three condensing enzymes | broad-spectrum antibacterial activity both in vivo and in vitro | – |
| C/C=C/C/C=C/CCC(=O)[C@H]1O[C@H]1C(N)=O [cerulenin] | – | – | bactericidal | potent inhibitor of FabB & F |
